Results: US12102640B2, “Use of dopamine and serotonin receptor antagonists for treatment in a subject with retinal degeneration” (United States Government as represented by the Department …, priority 2015, dated 2024)
“Also recorded” adds a separate entry of the source.

Assays:
P23H rat RGCs = assay: Light sensitivity (intensity-response functions) of RGCs in isolated P23H rat retina, extracellular recording; format: cell-based; conditions: for number of RGCs tested whose sensitivity was increased / average lowering of light intensity (increase in light sensitivity): P23H rat RGCs; for number of RGCs tested whose sensitivity was increased: one cell per retina; for average lowering of light intensity (increase in light sensitivity): difference of means before vs during drug; for light intensity at which the pre-drug half-maximum response was obtained in the presence of the drug, average: mean±SD of P23H rat RGCs (n=4-12), 100 ms flashes, concentration not given; for increase in light sensitivity of the representative RGC / light intensity that evoked the pre-drug half-maximum response with application of the drug, representative RGC: single representative P23H rat RGC; for light intensity that evoked the pre-drug half-maximum response with application of the drug, representative RGC: bath applied ~10 min, relative to 8.5×10^17 photons/cm^2/s
Procedure: P23H-line 1 homozygous rats (age range 22-37 weeks) were used. Breeding pairs of P23H-line 1 homozygous rats were generously donated by Dr. Matthew LaVail (University of California San Francisco, CA). The room light was kept on a 12 hr light/dark cycle using standard fluorescent lighting. During the light cycle, the illumination at the level of the cages was 100-200 lux.
(§1) On the day of an experiment, a rat was euthanized with sodium pentobarbital (150 mg/kg, i.p.), and the eyes were removed and hemisected under normal room light. After removal of the vitreous humour from each eye, one eyecup was transferred to a holding vessel containing bicarbonate-buffered Ames medium (Sigma-Aldrich), which was continuously gassed at room temperature with 5% CO2/95% O2. The retina of the other eyecup was gently peeled from the retinal pigment epithelium/choroid and trimmed into a square of ˜12 mm^2. The retina was then placed photoreceptor side down in a small volume (0.1 ml) chamber. The chamber was mounted on a fixed-stage upright microscope (Nikon Eclipse E600FN), and the retina superfused at 1.5 ml/min with bicarbonate-buffered Ames medium supplemented with 2 mg/ml D-(+) glucose and equilibrated with 5% CO2/95% O2. An in-line heating device (Warner Instruments) was used to maintain recording temperature at 35-36° C. The retina of the other eyecup was used later in the day.
(§2) Electrical Recording: Action potentials (spikes) were recorded extracellularly from individual RGCs. With the aid of red light (>630 nm) that was delivered from below the chamber, the tip of a glass insulated platinum/tungsten microelectrode (0.6-1.0 MΩ impedance; Thomas Recording GmbH, Germany) was visually advanced to the retinal surface with a motor-driven micromanipulator. Extracellular potentials from RGCs were amplified and bandpass filtered at 100 to 5000 Hz by a differential amplifier (Xcell-3; FHC, Bowdoin, ME). […] Spikes from single RGCs were converted to standard transistor to transistor logic (TTL) pulses with a time-amplitude window discriminator (APM Neural Spike Discriminator, FHC). A laboratory data acquisition system (1401 Processor and Spike2 software; Cambridge Electronic Design Ltd., Cambridge, UK) was used to digitize the TTL pulses and raw spike train data.
(§3) Light from a mercury arc lamp illuminated an aperture that was focused on the retina from above, through the 4× objective of the microscope. The image produced on the retina was either a 250-μm or 1.5-mm diameter spot, which was centered on the recorded RGC. In the light path was a 545 nm interference filter (bandwidth, 30 nm). The intensity of the unattenuated light stimulus on the retina, measured with a spectroradiometer (ILT900-R, International Light Technologies), was 8.5×10^17 photons/cm^2/s. Light intensities are expressed herein in log units relative to the unattenuated light intensity. An electromechanical shutter (Uniblitz, Rochester, NY) was used to control the stimulus duration, which was set to 100 ms in constructing intensity response curves. During recordings from RGCs, light flashes were presented with interstimulus intervals of 3-15 s (depending upon the duration and intensity of the light stimulus) to avoid any adapting effect of the previous flash. All experiments were performed in a dimly lighted room (10 lux).
(−)-Sulpiride was purchased from Tocris Bioscience (Minneapolis, MN). Sulpiride was dissolved in a small amount of dimethylsulphoxide (DMSO) and diluted in physiological saline. The drug solution was applied to the bathing solution using a calibrated syringe pump (Razel Scientific Instruments). Drug was bath applied for ˜10 min to ensure stable responses before effects were examined. Only one cell was studied in each retina to avoid possible residual drug effects.
Intensity-response curves were generated from the responses of RGCs to 100 ms flashes of light. The light stimulus was either a 250-μm or 1.5-mm diameter spot. […]

OFF-center P23H rat RGC = assay: Light responses of OFF-center RGCs that show a long-latency ON response; format: cell-based; conditions: 250-μm spot; sulpiride 9 µM, aripiprazole 5 µM
Procedure: as §1, §2
as §3, with “During recordings from RGCs, light flashes were presented with interstimulus intervals of 3-15 s (depending upon the duration and intensity of the light stimulus) to avoid any adapting effect of the previous flash. All experiments were performed in a dimly lighted room (10 lux).” left out

[1] = test system: long-latency ON-center P23H rat RGC; assay: Light responses of long-latency ON-center RGCs to a 250-μm spot (spike rasters, PSTHs); format: cell-based; conditions: sulpiride 12 µM, clozapine 5 μM, aripiprazole 5 μM, eticlopride 1 µM, MDL-100907 640 nM
Procedure: as §1, §2, §3
(−)-Sulpiride and clozapine were purchased from Tocris Bioscience (Minneapolis, MN). Aripiprazole was purchased from Sigma-Aldrich (St. Louis, MO). Sulpiride and clozapine were dissolved in a small amount of dimethylsulphoxide (DMSO) and diluted in physiological saline. Aripiprazole was dissolved in a small amount of 1 mM HCl and diluted in physiological saline. As in Example 1, the drug solutions were applied to the bathing solution using calibrated syringe pumps (Razel Scientific Instruments). Drugs were bath applied for ˜10 min to ensure stable responses before effects were examined. Only one cell was studied in each retina to avoid possible residual drug effects. P23H rat RGCs were identified as either ON-center or OFF-center cells from their responses to a 500-700 ms flash of a small (250-μm diameter) spot of light centered over the receptive field. ON-center cells elicit an excitatory response to the onset but not to the offset of the spot of light, whereas OFF-center cells elicit an excitatory response to the offset of the spot of light. […]

[2] = test system: D2 and D3 receptors over D4 receptors; conditions: compared with sulpiride; cited from earlier work
[3] = sulpiride 13 µM, L-745,870 1 µM
[4] = eticlopride 1 μM, 6 P23H rat RGCs
[5] = pooled data of MDL-100907 and SB-242084, 6 P23H rat RGCs

SMILES | number of RGCs tested whose sensitivity was increased (P23H rat RGCs) | average lowering of light intensity (increase in light sensitivity) (P23H rat RGCs) [log unit] | light intensity at which the pre-drug half-maximum response was obtained in the presence of the drug, average (P23H rat RGCs) [log units attenuation] | effect on the OFF response [1] | effect on the long-latency ON response [1] | also measured
CCN1CCC[C@H]1CNC(=O)c1cc(S(N)(=O)=O)ccc1OC [sulpiride, (−)-Sulpiride] | 8 of the 9 | 0.29 | −3.17±0.27 | appeared; also recorded: brought out an OFF response | abolished; also recorded: eliminated | shift of the intensity-response curve (P23H rat RGCs; single P23H rat RGC, sulpiride 13 µM, L-745,870 1 µM): to the left; increase in light sensitivity of the representative RGC (P23H rat RGCs; [3]): 0.44 log unit; light intensity that evoked the pre-drug half-maximum response with application of the drug, representative RGC (P23H rat RGCs; [3]): −3.47 log units attenuation; effect on the OFF response (OFF-center P23H rat RGC): remained intact; also recorded: spared; effect on the delayed (long-latency) ON response (OFF-center P23H rat RGC): reduced; also recorded: diminished
O=C1CCc2ccc(OCCCCN3CCN(c4cccc(Cl)c4Cl)CC3)cc2N1 [aripiprazole] |  | 0.27 | −3.54±0.36 | appeared; also recorded: brought out an OFF response | still present; also recorded: did not eliminate | effect on the OFF response (OFF-center P23H rat RGC): remained intact; also recorded: spared; effect on the delayed (long-latency) ON response (OFF-center P23H rat RGC): reduced; also recorded: eliminated
CCc1cc(Cl)c(OC)c(C(=O)NC[C@@H]2CCCN2CC)c1O [eticlopride, (−)-Eticlopride] |  |  |  | appeared; also recorded: brought out an OFF response | abolished; also recorded: eliminated | average increase in light sensitivity (P23H rat RGCs; [4]): 0.31 log unit; average light sensitivity during drug (P23H rat RGCs; [4]): −3.07 log units; cells showing an increase in light sensitivity (P23H rat RGCs; [4]): All cells; selectivity for D2 and D3 receptors over D4 receptors [2]: greater selectivity than sulpiride
CCN1CCCC1CNC(=O)c1cc(S(=O)(=O)CC)c(N)cc1OC (stereo not drawn) [amisulpride] | all 5 | 0.39 | −3.67±0.30 |  |  | 
O=C(CCCN1CCC(O)(c2ccc(Cl)cc2)CC1)c1ccc(F)cc1 [haloperidol] | all 4 | 0.28 | −3.39±0.43 |  |  | 
Cl.Cl.Cl.Clc1ccc(N2CCN(Cc3c[nH]c4ncccc34)CC2)cc1 [L-745,870, 3-(4-[4-Chlorophenyl]piperazin-1-yl)-methyl-1-H-pyrrolo[2,3-b]pyridinetrihydrochloride] | 11 of the 12 | 0.21 | −3.31±0.54 |  |  | increase in light sensitivity of the representative RGC (P23H rat RGCs; [3]): 0.34 log unit; light intensity that evoked the pre-drug half-maximum response with application of the drug, representative RGC (P23H rat RGCs; [3]): −3.69 log units attenuation
CN1CCN(C2=Nc3cc(Cl)ccc3Nc3ccccc32)CC1 [clozapine] |  | 0.30 | −3.56±0.55 |  |  | 
COc1cccc([C@H](O)C2CCN(CCc3ccc(F)cc3)CC2)c1OC [MDL-100907] |  |  |  | appeared; also recorded: brought out an OFF response | abolished; also recorded: eliminated | average increase in sensitivity, pooled 5-HT2 antagonists (P23H rat RGCs; [5]): 0.25 log unit; average light sensitivity during drug, pooled 5-HT2 antagonists (P23H rat RGCs; [5]): −3.25 log units
